Measured values published in patent US12077503B2, “Substituted cyclic amides and their use as herbicides” (FMC CORPORATION, priority 2015, dated 2024).

How the values were obtained:
Assay type in all cases: in vivo
[1] = system: barnyardgrass (Echinochloa crus-galli); assay: Test G Post-Emergence Protocol; details: Echinochloa crus-galli, post-emergence, 312 h; for pest or weed control at 15.625 g/ha: 15.625 g ai/ha, evaluated after 13 days (100=total damage to plant; 0=no damage to plant), read-out: Barnyardgrass damage rating; for pest or weed control at 62.5 g/ha: 62.5 g ai/ha, read-out: Barnyardgrass damage rating (100=total damage to plant; 0=no damage to plant); for pest or weed control at 62.5 g/ha / pest or weed control at 250 g/ha: evaluated after 13 days; for pest or weed control at 250 g/ha: 250 g ai/ha, read-out: damage to plant, Barnyardgrass (100=total damage to plant; 0=no damage to plant)
Method in brief: (§1)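 Sow in soil; grow 8 d (24/16 °C, 14 h light, 65% humidity); spray 15.625/62.5/250 g/ha in acetone:water 50:50 + 0.5% Tween 20; grow on, water twice daily; score damage 0–100 at 13 d.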

[2] = system: redroot pigweed (Amaranthus retroflexus); assay: Test G Post-Emergence Protocol; details: Amaranthus retroflexus, post-emergence, 312 h; for pest or weed control at 15.625 g/ha: 15.625 g ai/ha, evaluated after 13 days (100=total damage to plant; 0=no damage to plant), read-out: Pigweed, Redroot damage rating; for pest or weed control at 62.5 g/ha: 62.5 g ai/ha, read-out: Pigweed, Redroot damage rating (100=total damage to plant; 0=no damage to plant); for pest or weed control at 62.5 g/ha / pest or weed control at 250 g/ha: evaluated after 13 days; for pest or weed control at 250 g/ha: 250 g ai/ha, read-out: damage to plant, Pigweed, Redroot (100=total damage to plant; 0=no damage to plant)
Method in brief: as §1

[3] = system: ivy-leaved morning glory (Ipomoea hederacea); assay: Test G Post-Emergence Protocol; details: Ipomoea, post-emergence, 312 h; for pest or weed control at 15.625 g/ha: 15.625 g ai/ha, evaluated after 13 days (100=total damage to plant; 0=no damage to plant), read-out: Morningglory, Ivy-leaved damage rating; for pest or weed control at 62.5 g/ha: 62.5 g ai/ha, read-out: Morningglory, Ivy-leaved damage rating (100=total damage to plant; 0=no damage to plant); for pest or weed control at 62.5 g/ha / pest or weed control at 250 g/ha: evaluated after 13 days; for pest or weed control at 250 g/ha: 250 g ai/ha, read-out: damage to plant, Morningglory, Ivy-leaved (100=total damage to plant; 0=no damage to plant)
Method in brief: as §1

[4] = system: giant foxtail (Setaria faberi); assay: Test G Post-Emergence Protocol; details: Setaria faberi, post-emergence, 312 h; for pest or weed control at 15.625 g/ha: 15.625 g ai/ha, evaluated after 13 days (100=total damage to plant; 0=no damage to plant), read-out: Foxtail, Giant damage rating; for pest or weed control at 62.5 g/ha: 62.5 g ai/ha, read-out: Foxtail, Giant damage rating (100=total damage to plant; 0=no damage to plant); for pest or weed control at 62.5 g/ha / pest or weed control at 250 g/ha: evaluated after 13 days; for pest or weed control at 250 g/ha: 250 g ai/ha, read-out: damage to plant, Foxtail, Giant (100=total damage to plant; 0=no damage to plant)
Method in brief: as §1

[5] = system: velvetleaf (Abutilon theophrasti); assay: Test G Post-Emergence Protocol; details: Abutilon theophrasti, post-emergence, 312 h; for pest or weed control at 15.625 g/ha: 15.625 g ai/ha, evaluated after 13 days (100=total damage to plant; 0=no damage to plant), read-out: Velvetleaf damage rating; for pest or weed control at 62.5 g/ha: 62.5 g ai/ha, read-out: Velvetleaf damage rating (100=total damage to plant; 0=no damage to plant); for pest or weed control at 62.5 g/ha / pest or weed control at 250 g/ha: evaluated after 13 days; for pest or weed control at 250 g/ha: 250 g ai/ha, read-out: damage to plant, Velvetleaf (100=total damage to plant; 0=no damage to plant)
Method in brief: as §1

[6] = system: corn (Zea mays); assay: Test G Post-Emergence Protocol; details: Zea mays, post-emergence, 312 h; for plant injury at 15.625 g/ha: 15.625 g ai/ha, evaluated after 13 days (100=total damage to plant; 0=no damage to plant), read-out: Corn damage rating; for plant injury at 62.5 g/ha: 62.5 g ai/ha, read-out: Corn damage rating (100=total damage to plant; 0=no damage to plant); for plant injury at 62.5 g/ha / plant injury at 250 g/ha: evaluated after 13 days; for plant injury at 250 g/ha: 250 g ai/ha, read-out: damage to plant, Corn (100=total damage to plant; 0=no damage to plant)
Method in brief: as §1

[7] = system: barnyardgrass (Echinochloa crus-galli); assay: Test G Pre-Emergence Protocol; details: Echinochloa crus-galli, pre-emergence, 312 h, evaluated after 13 days; for pest or weed control at 15.625 g/ha: 15.625 g ai/ha, read-out: Barnyard grass damage rating (100=total damage to plant; 0=no damage to plant); for pest or weed control at 62.5 g/ha: 62.5 g ai/ha, 100=total damage to plant, 0=no damage to plant, read-out: plant damage rating, Barnyardgrass; for pest or weed control at 250 g/ha: 250 g ai/ha, read-out: Barnyardgrass damage rating (100=total damage to plant; 0=no damage to plant)
Method in brief: (§2)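 Scores are visual damage ratings from 0 (no damage) to 100 (total plant kill), taken 13 days after treatment. Compound was sprayed one day post-sowing at 15.625, 62.5 or 250 g/ha in 50:50 acetone/water with 0.5% Tween 20.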

[8] = system: redroot pigweed (Amaranthus retroflexus); assay: Test G Pre-Emergence Protocol; details: Amaranthus retroflexus, pre-emergence, 312 h, evaluated after 13 days; for pest or weed control at 15.625 g/ha: 15.625 g ai/ha; for pest or weed control at 15.625 g/ha / pest or weed control at 250 g/ha: read-out: Pigweed, Redroot damage rating (100=total damage to plant; 0=no damage to plant); for pest or weed control at 62.5 g/ha: 62.5 g ai/ha, 100=total damage to plant, 0=no damage to plant, read-out: plant damage rating, Pigweed, Redroot; for pest or weed control at 250 g/ha: 250 g ai/ha
Method in brief: as §2

[9] = system: ivy-leaved morning glory (Ipomoea hederacea); assay: Test G Pre-Emergence Protocol; details: Ipomoea, pre-emergence, 312 h, evaluated after 13 days; for pest or weed control at 15.625 g/ha: 15.625 g ai/ha, read-out: Morning-glory, Ivy-leaved damage rating (100=total damage to plant; 0=no damage to plant); for pest or weed control at 62.5 g/ha: 62.5 g ai/ha, 100=total damage to plant, 0=no damage to plant, read-out: plant damage rating, Morningglory, Ivy-leaved; for pest or weed control at 250 g/ha: 250 g ai/ha, read-out: Morningglory, Ivy-leaved damage rating (100=total damage to plant; 0=no damage to plant)
Method in brief: as §2

[10] = system: giant foxtail (Setaria faberi); assay: Test G Pre-Emergence Protocol; details: Setaria faberi, pre-emergence, 312 h, evaluated after 13 days; for pest or weed control at 15.625 g/ha: 15.625 g ai/ha; for pest or weed control at 15.625 g/ha / pest or weed control at 250 g/ha: read-out: Foxtail, Giant damage rating (100=total damage to plant; 0=no damage to plant); for pest or weed control at 62.5 g/ha: 62.5 g ai/ha, 100=total damage to plant, 0=no damage to plant, read-out: plant damage rating, Foxtail, Giant; for pest or weed control at 250 g/ha: 250 g ai/ha
Method in brief: as §2

[11] = system: velvetleaf (Abutilon theophrasti); assay: Test G Pre-Emergence Protocol; details: Abutilon theophrasti, pre-emergence, 312 h, evaluated after 13 days; for pest or weed control at 15.625 g/ha: 15.625 g ai/ha; for pest or weed control at 15.625 g/ha / pest or weed control at 250 g/ha: read-out: Velvetleaf damage rating (100=total damage to plant; 0=no damage to plant); for pest or weed control at 62.5 g/ha: 62.5 g ai/ha, 100=total damage to plant, 0=no damage to plant, read-out: plant damage rating, Velvetleaf; for pest or weed control at 250 g/ha: 250 g ai/ha
Method in brief: as §2

[12] = system: corn (Zea mays); assay: Test G Pre-Emergence Protocol; details: Zea mays, pre-emergence, 312 h, evaluated after 13 days; for plant injury at 15.625 g/ha: 15.625 g ai/ha; for plant injury at 15.625 g/ha / plant injury at 250 g/ha: read-out: Corn damage rating (100=total damage to plant; 0=no damage to plant); for plant injury at 62.5 g/ha: 62.5 g ai/ha, 100=total damage to plant, 0=no damage to plant, read-out: plant damage rating, Corn; for plant injury at 250 g/ha: 250 g ai/ha
Method in brief: as §2

CN1C[C@@H](c2ccc(C(F)(F)F)cc2)[C@H](C(=O)Nc2ncc[nH]2)C1=O (racemic) [Compound 1536]
0%: pest or weed control at 15.625 g/ha [1] | pest or weed control at 62.5 g/ha [1] | pest or weed control at 250 g/ha [1] | pest or weed control at 15.625 g/ha [2] | pest or weed control at 62.5 g/ha [2] | pest or weed control at 250 g/ha [2] | pest or weed control at 15.625 g/ha [3] | pest or weed control at 62.5 g/ha [3] | pest or weed control at 250 g/ha [3] | pest or weed control at 15.625 g/ha [4] | pest or weed control at 62.5 g/ha [4] | pest or weed control at 250 g/ha [4] | pest or weed control at 15.625 g/ha [5] | pest or weed control at 62.5 g/ha [5] | pest or weed control at 250 g/ha [5] | plant injury at 15.625 g/ha [6] | plant injury at 62.5 g/ha [6] | plant injury at 250 g/ha [6] | pest or weed control at 15.625 g/ha [7] | pest or weed control at 62.5 g/ha [7] | pest or weed control at 250 g/ha [7] | pest or weed control at 15.625 g/ha [8] | pest or weed control at 62.5 g/ha [8] | pest or weed control at 250 g/ha [8] | pest or weed control at 15.625 g/ha [9] | pest or weed control at 62.5 g/ha [9] | pest or weed control at 250 g/ha [9] | pest or weed control at 15.625 g/ha [10] | pest or weed control at 62.5 g/ha [10] | pest or weed control at 250 g/ha [10] | pest or weed control at 15.625 g/ha [11] | pest or weed control at 62.5 g/ha [11] | pest or weed control at 250 g/ha [11] | plant injury at 15.625 g/ha [12] | plant injury at 62.5 g/ha [12] | plant injury at 250 g/ha [12]

COC(=O)c1nccc(NC(=O)[C@@H]2C(=O)N(C)C[C@H]2c2ccc(C(F)(F)F)cc2)n1 (racemic) [Compound 1537]
0%: pest or weed control at 15.625 g/ha [1] | pest or weed control at 62.5 g/ha [1] | pest or weed control at 250 g/ha [1] | pest or weed control at 15.625 g/ha [2] | pest or weed control at 62.5 g/ha [2] | pest or weed control at 250 g/ha [2] | pest or weed control at 15.625 g/ha [3] | pest or weed control at 62.5 g/ha [3] | pest or weed control at 250 g/ha [3] | pest or weed control at 15.625 g/ha [4] | pest or weed control at 62.5 g/ha [4] | pest or weed control at 250 g/ha [4] | pest or weed control at 15.625 g/ha [5] | pest or weed control at 62.5 g/ha [5] | pest or weed control at 250 g/ha [5] | plant injury at 15.625 g/ha [6] | plant injury at 62.5 g/ha [6] | plant injury at 250 g/ha [6] | pest or weed control at 15.625 g/ha [7] | pest or weed control at 62.5 g/ha [7] | pest or weed control at 250 g/ha [7] | pest or weed control at 15.625 g/ha [8] | pest or weed control at 62.5 g/ha [8] | pest or weed control at 250 g/ha [8] | pest or weed control at 15.625 g/ha [9] | pest or weed control at 62.5 g/ha [9] | pest or weed control at 250 g/ha [9] | pest or weed control at 15.625 g/ha [10] | pest or weed control at 62.5 g/ha [10] | pest or weed control at 250 g/ha [10] | pest or weed control at 15.625 g/ha [11] | pest or weed control at 62.5 g/ha [11] | pest or weed control at 250 g/ha [11] | plant injury at 15.625 g/ha [12] | plant injury at 62.5 g/ha [12] | plant injury at 250 g/ha [12]
